In publication PMC6044830 (ACS Omega, 2017) one finds IC50 data, which are given here for two molecules.

A word on the IC50: it is the concentration at which inhibition is half-maximal.

The assay deals with PDE4D2 (Homo sapiens, UniProt Q08499). Put plainly: PDE4D2 assay. It is filed as biochemical. Conditions: read-out: PDE4D2 (IC50); human recombinant PDE4D2, catalytic domain.
PDE4D2, sequence (Q08499 381-740): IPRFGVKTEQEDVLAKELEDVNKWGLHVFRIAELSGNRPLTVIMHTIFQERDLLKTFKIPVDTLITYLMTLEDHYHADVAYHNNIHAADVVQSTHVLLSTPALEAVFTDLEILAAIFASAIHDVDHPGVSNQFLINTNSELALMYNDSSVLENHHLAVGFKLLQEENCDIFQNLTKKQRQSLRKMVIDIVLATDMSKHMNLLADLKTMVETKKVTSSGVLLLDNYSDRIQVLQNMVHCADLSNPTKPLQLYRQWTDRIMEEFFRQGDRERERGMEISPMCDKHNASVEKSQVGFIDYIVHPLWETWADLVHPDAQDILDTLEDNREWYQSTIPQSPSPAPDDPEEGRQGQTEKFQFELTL

As for `Cc1ccc(-c2ccc(O)cc2)c(C(=C2C=CC(=O)C=C2)c2ccc(O)cc2)c1C#Cc1ccc(O)cc1` [Compound 8, selaginellin B], the concentration for half-maximal inhibition (IC50) was found to be 140 ± 16 nM. For `OCc1ccc2c(c1C#Cc1ccc(O)cc1)C(c1ccc(O)cc1)(c1ccc(O)cc1)c1cc(O)ccc1-2` [Compound 3, selaginpulvilin A], the IC50 came out at 240 ± 40 nM.
